In patent US20250135002A1, “COMPOSITIONS FOR AND METHOD OF EFFECTING TUMOR CELL DEATH” (Duke University, priority 2022, published 2025):
Read-outs that look alike come from different tables or passages of the source.

System: c1498 murine AML (Acute Myeloid Leukemia) cells
Assay: Survival of FACS-sorted phosphatidylserine-positive AML cells after cytarabine treatment
Type: cell-based
Conditions: Mus musculus, 1 μM cytarabine for 24 hrs, live cell number estimated from growth rates
Source text: FIG. 1A-FIG. 1C show the survival of phosphatidylserine-expressing AML cells. […] The rectangles indicate the sorted cells. […] About 1000 each of the sorted cells were placed into multi-well plates. When the cells reached sufficient numbers, they were counted at different time points to measure their growth rates. The growth rates were then used to estimate the initial live cell numbers. The following formula was used to calculate the minimal initial live cell numbers: Minimal initial cell number=Total cell population/[…] (days to reach the current cell number).
To determine whether cells expressing high-level of PS expression on the cell surface were destined to die, the viability of c1498 murine AML (Acute Myeloid Leukemia) cells treated with cytarabine (part of a classical chemotherapy regimen for human AML) was examined.
Specifically, whether PS-expressing acute myelocytic leukemia (AML) cells survived was examined. FACS was used to identify and sort c1498 cells treated with 1 μM cytarabine (for 24 hrs) and with high PS-expression. The sorted cells were then seeded into 6-well dishes and the ability to survive and proliferate was measured. FIG. 1A-FIG. 1B). […]

Nc1ccn([C@@H]2O[C@H](CO)[C@@H](O)[C@@H]2O)c(=O)n1 [cytarabine]
viability at 1 µM (FACS-sorted PS+7AAD+ (late apoptotic) cells, read-out: proportion of cytarabine-treated PS+7AAD+ c1498 cells that remained viable and could proliferate): ~8% | viability at 1 µM (FACS-sorted PS+7AAD- (early apoptotic) cells, read-out: proportion of cytarabine-treated PS+7AAD- c1498 cells that remained viable and could proliferate): ~25%
